Laboratory results published in US20220259212A1, “INHIBITORS OF INDOLEAMINE 2,3-DIOXYGENASE AND/OR TRYPTOPHAN 2,3-DIOXYGENASE” (Idorsia Pharmaceuticals Ltd, priority 2019, published 2022).

Key:
[1] = biological target: T1, Recombinant full-length human IDO1 (Homo sapiens, UniProt P14902); assay: IDO1 enzymatic assay (NFK quantified by LCMS); format: biochemical; conditions: 2 nM enzyme, 5 μM L-tryptophan, 30 min pre-incubation, pH6.5; mean if measured multiple times; read-out: hIDO activity (IC50 in nM)
T1 construct: Recombinant full-length human IDO1 with a N-terminal hexahistidine tag; hexahistidine (N); made in house; host or cells: E. coli
Description: 1) Testing Compounds for IDO Inhibitory Activity in an IDO1 Enzymatic Assay:
Recombinant full-length human IDO1 with a N-terminal hexahistidine tag expressed in E. coli and purified to homogeneity is incubated at a final concentration of 2 nM in assay buffer consisting of 37.5 mM phosphate buffer at pH6.5 supplemented with 10 mM ascorbic acid, 0.45 μM methylene blue, 50 U/ml catalase, 0.01% BSA, and 0.01% Tween 20 (protocol modified from Seegers et al, JBS 2014). Example compounds are serially diluted in DMSO, further diluted in phosphate buffer, and added to the enzyme at final concentrations ranging from 10 μM to 0.5 nM. The final DMSO concentration is 0.6%. Following a pre-incubation of 30 minutes at RT, the reaction is started by the addition of L-tryptophan at a final concentration of 5 μM in assay buffer. After 30 minutes of incubation at RT, 3 μL of the 20 μl reaction mixture are transferred to a 384 deep well plate containing 25 μL of deionized water. 100 μl of 200 nM L-Tryptophan-(indole-d5) in cold 100% methanol are added followed by a 10 minutes centrifugation at 3220×g at 4° C. An additional 75 μL of deionized water are then added followed by a 10 minutes centrifugation at 3220×g at 4° C. The product of the reaction N′-Formylkynurenine (NFK) is quantified by LCMS and normalized to the L-Tryptophan-(indole-d5) signal. Samples with 0.6% DMSO (0% effect) and a TDO/IDO inhibitor (100% effect) are used as control samples to set the parameters for the non-linear regression necessary for the determination of the half-maximal inhibitory concentration (IC50) for each compound. For each compound concentration the percentage of activity compared to 0% and 100% effect is calculated as average±STDEV (each concentration measured in duplicate). IC50 values and curves are generated with XLfit software (IDBS) using Dose-Response One Site model 203 (four parameter logistic curve model). The calculated IC50 values may fluctuate depending on the daily assay performance. Fluctuations of this kind are known to those skilled in the art. When compounds are measured multiple times, mean values are given.

[2] = biological target: T2, Recombinant human TDO comprising amino acids 19-407 (Homo sapiens, UniProt P48775); assay: TDO2 enzymatic assay (NFK quantified by LCMS); format: biochemical; conditions: 15 nM enzyme, 200 μM L-tryptophan, 30 min pre-incubation, pH7; mean if measured multiple times; read-out: hTDO activity (IC50 in nM)
T2 construct: human TDO comprising amino acids 19-407; hexahistidine (N); made in house; host or cells: E. coli
Description: 2) Testing Compounds for TDO Inhibitory Activity in a TDO2 Enzymatic Assay:
Recombinant human TDO comprising amino acids 19-407 with a N-terminal hexahistidine tag expressed in E. coli and purified to homogeneity is incubated at a final concentration of 15 nM in assay buffer consisting of 75 mM phosphate buffer at pH7 supplemented with 100 μM ascorbic acid, 50 U/ml Catalase, 0.01% BSA, and 0.01% Tween 20 (protocol modified from Seegers et al, JBS 2014). Example compounds are serially diluted in DMSO, further diluted in phosphate buffer, and added to the reaction mixture at final concentrations ranging from 10 μM to 0.5 nM. The final DMSO concentration is 0.6%. Following a pre-incubation of 30 minutes at RT, the reaction is started by the addition of L-tryptophan at a final concentration of 200 μM in assay buffer. After 30 minutes of incubation at RT, 3 μL of the reaction mixture are transferred to a 384 deep well plate containing 25 μL of deionized water. 100 μl of 200 nM L-Tryptophan-(indole-d5) in cold 100% methanol are added followed by a 10 minutes centrifugation at 3220×g at 4° C. An additional 75 μL of deionized water are then added followed by a 10 minutes centrifugation at 3220×g at 4° C. The product of the reaction N′-Formylkynurenine (NFK) is quantified by LCMS and normalized to the L-Tryptophan-(indole-d5) signal. Samples with 0.6% DMSO (0% effect) and a TDO/IDO inhibitor (100% effect) are used as control samples to set the parameters for the non-linear regression necessary for the determination of the half-maximal inhibitory concentration (IC50) for each compound. For each compound concentration the percentage of activity compared to 0% and 100% effect is calculated as average±STDEV (each concentration measured in duplicate). IC50 values and curves are generated with XLfit software (IDBS) using Dose-Response One Site model 203 (four parameter logistic curve model). The calculated IC50 values may fluctuate depending on the daily assay performance. Fluctuations of this kind are known to those skilled in the art. When compounds are measured multiple times, mean values are given.

IDO1 in SKOV3 cells = biological target: T3, IDO1 in SKOV3 cells (Homo sapiens, UniProt P14902); assay: Cell-based IDO inhibitory activity in IFNγ-stimulated SKOV3 cells (NFK + kynurenine by LCMS); conditions: IFNγ 50 ng/ml, 200 uM L-tryptophan, 24 hours
T3 construct: SKOV3 cells (NCI, No. 0503405) which upregulate IDO1 after stimulation with IFNγ; host or cells: SKOV3 cells stimulated with IFNγ
Description: 3) Testing Compounds for IDO/TDO Inhibitory Activity and Toxicity in Cell-Based Assays
SW48 cells (ATCC, CCL-231) are used to measure compounds for TDO inhibitory activity and are routinely maintained in DMEM high glucose/GlutaMAX™/pyruvate 90% (v/v), FCS 10% (v/v), Penicilin/streptomycin 1% (v/v). SKOV3 cells (NCI, No. 0503405) which upregulate IDO1 after stimulation with IFNγ are used to measure compounds for IDO inhibitory activity. SKOV3 cells are routinely maintained in RPMI 90% (v/v), FCS 10% (v/v), Penicilin/streptomycin 1% (v/v). SW48 or SKOV3 cells are seeded in 384 well plates at a density of 8000 cells in 45 ul per well or 4000 cells in 45 ul per well, respectively. Plates are incubated at 37° C./5% CO2 for 24 hours. On the next day, 10 ul compound in serial dilutions (tested concentration range 10 uM-40 nM) and 200 uM L-tryptophan are added (SKV03 receive in addition IFNγ at a final concentration of 50 ng/ml). After 24 hours of incubation at 37° C./5% CO2, 3 ul of the supernatant per well is transferred to 25 ul H2O per well in a 384 deep well plate and 25 ul of the supernatant per well is transferred to waste. The SKOV3 and SW48 cell plates with 25 ul supernatant per well remaining are used to measure viability (see below). The 384 deep well plate containing 3 ul supernatant and 25 ul H2O per well are further processed for LCMS: After the addition of 100 ul L-tryptophan-(indole-d5) (Sigma 615862) at 200 nM in methanol, the 384 deep well plates are centrifuged for 10 minutes at 3220×g at 4° C., 75 ul H2O is added per well and plates centrifuged again for 10 minutes at 3220×g at 4° C. N-formylkynurenine and kynurenine are quantified by LCMS, normalized to the internal standard L-tryptophan-(indole-d5) and the sum is calculated. Samples with 0.2% DMSO (0% effect) and a TDO/IDO inhibitor (100% effect) are used as control samples to set the parameters for the non-linear regression necessary for the determination of the IC50 for each compound. For each compound concentration the percentage of activity compared to 0% and 100% effect is calculated as average±STDEV (each concentration measured in duplicate). IC50 values and curves are generated with XLfit software (IDBS) using Dose-Response One Site model 203. The calculated IC50 values may fluctuate depending on the daily cellular assay performance. Fluctuations of this kind are known to those skilled in the art. When compounds are measured multiple times, mean values are given.

T2 sequence (P48775 19-406 limits assumed): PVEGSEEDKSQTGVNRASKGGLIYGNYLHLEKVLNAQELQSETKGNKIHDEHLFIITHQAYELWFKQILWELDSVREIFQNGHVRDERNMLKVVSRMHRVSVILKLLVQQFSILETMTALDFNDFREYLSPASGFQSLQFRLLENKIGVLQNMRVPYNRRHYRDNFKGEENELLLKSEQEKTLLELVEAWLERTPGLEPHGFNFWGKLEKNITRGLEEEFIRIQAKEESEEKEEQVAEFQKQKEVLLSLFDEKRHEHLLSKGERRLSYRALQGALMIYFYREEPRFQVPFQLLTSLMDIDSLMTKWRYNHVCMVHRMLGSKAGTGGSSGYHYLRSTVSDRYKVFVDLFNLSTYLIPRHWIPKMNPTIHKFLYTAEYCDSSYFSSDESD
T1 sequence (P14902 whole entry): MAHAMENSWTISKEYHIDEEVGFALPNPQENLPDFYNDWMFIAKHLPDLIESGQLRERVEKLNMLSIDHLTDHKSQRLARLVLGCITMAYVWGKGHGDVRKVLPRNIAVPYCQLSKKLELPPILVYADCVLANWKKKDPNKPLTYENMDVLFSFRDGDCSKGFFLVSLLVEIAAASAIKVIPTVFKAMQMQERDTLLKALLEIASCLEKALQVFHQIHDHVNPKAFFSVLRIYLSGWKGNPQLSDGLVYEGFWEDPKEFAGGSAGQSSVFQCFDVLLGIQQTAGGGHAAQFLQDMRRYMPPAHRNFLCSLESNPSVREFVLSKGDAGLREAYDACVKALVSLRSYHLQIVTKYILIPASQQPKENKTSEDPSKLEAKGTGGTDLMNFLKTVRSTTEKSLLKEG
T3 sequence (P14902 whole entry): as above

SMILES	IC50 [1] [nM]	IC50 [2] [nM]	IC50 (IDO1 in SKOV3 cells) [nM]
COc1ccc(-n2cc(C(O)c3c(C4CC4)ccc4cncn34)nn2)cc1 (racemic) [Example 4, rac-(6-Cyclopropyl-imidazo[1,5-a]pyridin-5-yl)-[1-(4-methoxy-phenyl)-1H-[1,2,3]triazol-4-yl]-methanol]	3.7	> 10200	42.2
CNc1ccc(-n2cc([C@H](O)c3c(C4CC4)ncc4cncn34)nn2)cc1 [Example 42, (R)-(6-Cyclopropyl-imidazo[1,5-a]pyrazin-5-yl)-[1-(4-methylamino-phenyl)-1H-[1,2,3]triazol-4-yl]-methanol]	13.5	> 10200	199
COc1cc(F)c(-n2nnc(C(O)c3c(C4CC4)ncc4cncn34)c2C)cc1F (racemic) [Example 55, rac-(6-Cyclopropyl-imidazo[1,5-a]pyrazin-5-yl)-[1-(2,5-difluoro-4-methoxy-phenyl)-5-methyl-1H-[1,2,3]triazol-4-yl]-methanol]		> 10200	35
COc1ccc(-n2nnc(C(O)c3c(Cl)ccc4cncn34)c2Cl)cc1 (racemic) [Example 51, rac-(6-Chloro-imidazo[1,5-a]pyridin-5-yl)-[5-chloro-1-(4-methoxy-phenyl)-1H-[1,2,3]triazol-4-yl]-methanol]		7040	145
CC(C)(O)COc1cc(F)c(-n2cc([C@H](O)c3c(C4CC4)ncc4cncn34)nn2)cc1F [Example 56, 1-(4-{4-[(R)-(6-Cyclopropyl-imidazo[1,5-a]pyrazin-5-yl)-hydroxy-methyl]-[1,2,3]triazol-1-yl}-2,5-difluoro-phenoxy)-2-methyl-propan-2-ol]		> 10200	29.3
Cc1c(C(O)c2c(C3CC3)ncc3cncn23)nnn1-c1ccccc1F (racemic) [Example 57, rac-(6-Cyclopropyl-imidazo[1,5-a]pyrazin-5-yl)-(1-(2-fluoro-phenyl)-5-methyl-1H-[1,2,3]triazol-4-yl-methanol]		> 10200	333
COc1ccc(-n2cc([C@H](O)c3c(C4CC4)ncc4cncn34)nn2)cc1Br [Example 23, (R)-[1-(3-Bromo-4-methoxy-phenyl)-1H-[1,2,3]triazol-4-yl]-(6-cyclopropyl-imidazo[1,5-a]pyrazin-5-yl)-methanol]	9.61		51.9
Cc1c(C(O)c2c(C3CC3)ncc3cncn23)nnn1-c1ccc(F)cc1F (racemic) [Example 54, rac-(6-Cyclopropyl-imidazo[1,5-a]pyrazin-5-yl)-[1-(2,4-difluoro-phenyl)-5-methyl-1H-[1,2,3]triazol-4-yl]-methanol]		> 10200	364

Next, values leading:

IC50 [1] [nM]	IC50 [2] [nM]	IC50 (IDO1 in SKOV3 cells) [nM]	SMILES
2.29	1460	29	Cc1c(C(O)c2c(Cl)ccc3cncn23)nnn1-c1ccc(O)c(F)c1 (racemic) [Example 48, rac-4-{4-[(6-Chloro-imidazo[1,5-a]pyridin-5-yl)-hydroxy-methyl]-5-methyl-[1,2,3]triazol-1-yl}-2-fluoro-phenol]
5.26	7940	6.94	COc1cc(F)c(-n2nnc(C(O)c3c(Cl)ccc4cncn34)c2C)cc1Cl (racemic) [Example 39, rac-[1-(5-Chloro-2-fluoro-4-methoxy-phenyl)-5-methyl-1H-[1,2,3]triazol-4-yl]-(6-chloro-imidazo[1,5-a]pyridin-5-yl)-methanol]
	8200	5.41	Cc1c(C(O)c2c(Cl)ccc3cncn23)nnn1-c1ccc(OCCC(C)(C)O)c(F)c1 (racemic) [Example 50, rac-4-(4-{4-[(6-Chloro-imidazo[1,5-a]pyridin-5-yl)-hydroxy-methyl]-5-methyl-[1,2,3]triazol-1-yl}-2-fluoro-phenoxy)-2-methyl-butan-2-ol]
	> 10200	27.4	O[C@@H](c1cn(-c2cc(F)c(OCC3COC3)cc2F)nn1)c1c(C2CC2)ncc2cncn12 [Example 53, (R)-(6-Cyclopropyl-imidazo[1,5-a]pyrazin-5-yl)-{1-[2,5-difluoro-4-(oxetan-3-ylmethoxy)-phenyl]-1H-[1,2,3]triazol-4-yl}-methanol]
	8360	10.2	Cc1c(C(O)c2c(Cl)ccc3cncn23)nnn1-c1ccc(OCCC(C)(C)O)c(Cl)c1 (racemic) [Example 49, rac-4-(2-Chloro-4-{4-[(6-chloro-imidazo[1,5-a]pyridin-5-yl)-hydroxy-methyl]-5-methyl-[1,2,3]triazol-1-yl}-phenoxy)-2-methyl-butan-2-ol]
	> 10200	18.1	O[C@@H](c1cn(-c2cc(F)c(OCC3(F)COC3)cc2F)nn1)c1c(C2CC2)ncc2cncn12 [Example 52, (R)-(6-Cyclopropyl-imidazo[1,5-a]pyrazin-5-yl)-{1-[2,5-difluoro-4-(3-fluoro-oxetan-3-ylmethoxy)-phenyl]-1H-[1,2,3]triazol-4-yl}-methanol]
